Laboratory results as given in PubChem BioAssay (NCI).
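Interpolation was linear, between the two tested concentrations surrounding the appropriate level; five concentrations were tested over 48 hours in 96-well plates. TGI denotes the concentration required for complete inhibition of growth.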

Legend:
Experiment in all cases: NCI-60 cell line screen, 48 h
[1] = system: SF-539 CNS
[2] = system: MALME-3M melanoma
[3] = system: MDA-N
[4] = system: DU-145 prostate
[5] = system: PC-3 prostate
[6] = system: OVCAR-5 ovarian
[7] = system: OVCAR-4 ovarian
[8] = system: EKVX NSCLC
[9] = system: K-562 leukemia
[10] = system: NCI-H23 lung
[11] = system: SK-MEL-5 melanoma
[12] = system: COLO 205 colon
[13] = system: HCC-2998 colon
[14] = system: NCI/ADR-RES ovarian
[15] = system: SF-268 CNS
[16] = system: UO-31 renal
[17] = system: SK-MEL-2 melanoma
[18] = system: T-47D breast
[19] = system: HOP-92 NSCLC
[20] = system: CAKI-1 renal
[21] = system: A549 NSCLC
[22] = system: SW-620 colon
[23] = system: RXF 393 renal
[24] = system: SF-295 CNS
[25] = system: UACC-257 melanoma
[26] = system: CCRF-CEM leukemia
[27] = system: MDA-MB-435
[28] = system: OVCAR-8 ovarian
[29] = system: SK-MEL-28 melanoma
[30] = system: NCI-H460 lung
[31] = system: IGROV1 ovarian
[32] = system: HL-60(TB) leukemia
[33] = system: SNB-19 CNS
[34] = system: HOP-62 NSCLC
[35] = system: MOLT-4 leukemia
[36] = system: TK-10 renal
[37] = system: MCF7 breast
[38] = system: M14 melanoma
[39] = system: UACC-62 melanoma
[40] = system: LOX IMVI melanoma
[41] = system: HCT-15 colon
[42] = system: RPMI-8226 leukemia
[43] = system: SR leukemia
[44] = system: A498 renal
[45] = system: SK-OV-3 ovarian
[46] = system: HS 578T breast
[47] = system: 786-0 renal
[48] = system: SNB-75 CNS
[49] = system: OVCAR-3 ovarian
[50] = system: U251 CNS
[51] = system: KM12 colon
[52] = system: MDA-MB-231 breast
[53] = system: HT29 colon
[54] = system: NCI-H226 lung
[55] = system: ACHN renal
[56] = system: HCT-116 colon
[57] = system: SN12C renal
[58] = system: NCI-H522 lung

Compound: CC(C)(C)COC1C2(OCCO2)C2CCC1(C)C2(C)C (stereo not drawn)
- TGI [1]: > 100 µM
- TGI [2]: 64 µM
- TGI [3]: > 100 µM
- TGI [4]: > 100 µM
- TGI [5]: 54.5 µM
- TGI [6]: 73.8 µM
- TGI [7]: > 100 µM
- TGI [8]: 79.9 µM
- TGI [9]: 35.7 µM
- TGI [10]: > 100 µM
- TGI [11]: > 100 µM
- TGI [12]: 91.1 µM
- TGI [13]: > 100 µM
- TGI [14]: > 100 µM
- TGI [15]: > 100 µM
- TGI [16]: 65.1 µM
- TGI [17]: 50.2 µM
- TGI [18]: 68.5 µM
- TGI [19]: 70.2 µM
- TGI [20]: > 100 µM
- TGI [21]: 48 µM
- TGI [22]: 37.9 µM
- TGI [23]: 36 µM
- TGI [24]: 35.2 µM
- TGI [25]: 70.5 µM
- TGI [26]: 37.8 µM
- TGI [27]: > 100 µM
- TGI [28]: 55.9 µM
- TGI [29]: > 100 µM
- TGI [30]: > 100 µM
- TGI [31]: > 100 µM
- TGI [32]: 44.2 µM
- TGI [33]: 41.7 µM
- TGI [34]: 59.2 µM
- TGI [35]: 39.7 µM
- TGI [36]: > 100 µM
- TGI [37]: 37.3 µM
- TGI [38]: > 100 µM
- TGI [39]: > 100 µM
- TGI [40]: 38 µM
- TGI [41]: 50 µM
- TGI [42]: 41.7 µM
- TGI [43]: 40.6 µM
- TGI [44]: > 100 µM
- TGI [45]: > 100 µM
- TGI [46]: 90.1 µM
- TGI [47]: 34.5 µM
- TGI [48]: 67.6 µM
- TGI [49]: 33.3 µM
- TGI [50]: 34.3 µM
- TGI [51]: 42 µM
- TGI [52]: > 100 µM
- TGI [53]: 74.4 µM
- TGI [54]: > 100 µM
- TGI [55]: 42.1 µM

Compound: CCn1c(O)c(C=Nc2ccccc2)s/c1=N/Nc1ncc(CC(=O)Nc2ccccc2C)s1
- TGI [1]: > 100 µM
- TGI [2]: > 100 µM
- TGI [3]: > 100 µM
- TGI [4]: > 100 µM
- TGI [56]: > 100 µM
- TGI [57]: > 100 µM
- TGI [5]: > 100 µM
- TGI [6]: > 100 µM
- TGI [7]: > 100 µM
- TGI [8]: > 100 µM
- TGI [9]: > 100 µM
- TGI [10]: > 100 µM
- TGI [11]: > 100 µM
- TGI [12]: > 100 µM
- TGI [13]: > 100 µM
- TGI [14]: > 100 µM
- TGI [15]: > 100 µM
- TGI [16]: > 100 µM
- TGI [17]: > 100 µM
- TGI [18]: > 100 µM
- TGI [19]: > 100 µM
- TGI [20]: > 100 µM
- TGI [21]: > 100 µM
- TGI [22]: > 100 µM
- TGI [23]: > 100 µM
- TGI [24]: > 100 µM
- TGI [25]: > 100 µM
- TGI [26]: > 100 µM
- TGI [27]: > 100 µM
- TGI [28]: > 100 µM
- TGI [29]: > 100 µM
- TGI [30]: > 100 µM
- TGI [31]: > 100 µM
- TGI [32]: > 100 µM
- TGI [33]: > 100 µM
- TGI [34]: > 100 µM
- TGI [35]: > 100 µM
- TGI [36]: > 100 µM
- TGI [37]: > 100 µM
- TGI [38]: > 100 µM
- TGI [39]: > 100 µM
- TGI [58]: > 100 µM
- TGI [40]: > 100 µM
- TGI [41]: > 100 µM
- TGI [42]: > 100 µM
- TGI [43]: > 100 µM
- TGI [44]: > 100 µM
- TGI [45]: > 100 µM
- TGI [46]: > 100 µM
- TGI [47]: > 100 µM
- TGI [48]: > 100 µM
- TGI [49]: > 100 µM
- TGI [50]: > 100 µM
- TGI [51]: > 100 µM
- TGI [52]: > 100 µM
- TGI [53]: > 100 µM
- TGI [54]: > 100 µM
- TGI [55]: > 100 µM
